In US7834005B2, “Pyrrolobenzodiazepine derivatives, compositions comprising the same and methods related thereto” (The United States of America as represented by the …, priority 2003, dated 2010):
Like-named read-outs stand apart in the source and are kept apart here.

Tests used:
[1] = system: NCI/ADR-RES; assay: 60-cell-line screen: NCI/ADR-RES (Breast); type: cell-based
Excerpt: (§1) The concentration effects of the compound for various cancer cell lines are summarized in Tables 2-10, wherein GI50 is the drug concentration required to inhibit the growth of 50% of the cells, TGI is the drug concentration required for total growth inhibition, and LC50 is the drug concentration required to kill 50% of the cells.

[2] = system: SK-MEL-28; assay: 60-cell-line screen: SK-MEL-28 (Melanoma); type: cell-based; details: read-out: LC50 (the source's name)
[3] = system: IGROV1; assay: 60-cell-line screen: IGROV1 (Ovarian); type: cell-based
[4] = system: 786-0; assay: 60-cell-line screen: 786-0 (Renal); type: cell-based
[5] = system: HS 578T; assay: 60-cell-line screen: HS 578T (Breast); type: cell-based; details: read-out: LC50 (the source's name)
Excerpt: as §1

[6] = system: NCI-H460; assay: 60-cell-line screen: NCI-H460 (Non-Small Cell Lung); type: cell-based; details: read-out: LC50 (the source's name)
[7] = system: OVCAR-8; assay: 60-cell-line screen: OVCAR-8 (Ovarian); type: cell-based
Excerpt: as §1

[8] = system: MALME-3M; assay: 60-cell-line screen: MALME-3M (Melanoma); type: cell-based
[9] = system: HOP-92; assay: 60-cell-line screen: HOP-92 (Non-Small Cell Lung); type: cell-based; details: read-out: LC50 (the source's name)
[10] = system: CCRF-CEM; assay: 60-cell-line screen: CCRF-CEM (Leukemia); type: cell-based
[11] = system: SF-539; assay: 60-cell-line screen: SF-539 (Central Nervous System); type: cell-based; details: read-out: LC50 (the source's name)
Excerpt: as §1

[12] = system: COLO 205; assay: 60-cell-line screen: COLO 205 (Colon); type: cell-based
[13] = system: CAKI-1; assay: 60-cell-line screen: CAKI-1 (Renal); type: cell-based
[14] = system: SN12C; assay: 60-cell-line screen: SN12C (Renal); type: cell-based
[15] = system: TK-10; assay: 60-cell-line screen: TK-10 (Renal); type: cell-based
[16] = system: UACC-62; assay: 60-cell-line screen: UACC-62 (Melanoma); type: cell-based
[17] = system: HOP-62; assay: 60-cell-line screen: HOP-62 (Non-Small Cell Lung); type: cell-based; details: read-out: LC50 (the source's name)
[18] = system: PC-3; assay: 60-cell-line screen: PC-3 (Prostate); type: cell-based
[19] = system: BT-549; assay: 60-cell-line screen: BT-549 (Breast); type: cell-based; details: read-out: LC50 (the source's name)
Excerpt: as §1

[20] = system: OVCAR-4; assay: 60-cell-line screen: OVCAR-4 (Ovarian); type: cell-based
Excerpt: as §1

[21] = system: MOLT-4; assay: 60-cell-line screen: MOLT-4 (Leukemia); type: cell-based
[22] = system: MDA-N; assay: 60-cell-line screen: MDA-N (Breast); type: cell-based
[23] = system: UACC-257; assay: 60-cell-line screen: UACC-257 (Melanoma); type: cell-based
[24] = system: T-47D; assay: 60-cell-line screen: T-47D (Breast); type: cell-based; details: read-out: LC50 (the source's name)
[25] = system: ACHN; assay: 60-cell-line screen: ACHN (Renal); type: cell-based
[26] = system: M14; assay: 60-cell-line screen: M14 (Melanoma); type: cell-based; details: read-out: LC50 (the source's name)
[27] = system: A549/ATCC; assay: 60-cell-line screen: A549/ATCC (Non-Small Cell Lung); type: cell-based; details: read-out: LC50 (the source's name)
Excerpt: as §1

[28] = system: RPMI-8226; assay: 60-cell-line screen: RPMI-8226 (Leukemia); type: cell-based
[29] = system: U251; assay: 60-cell-line screen: U251 (Central Nervous System); type: cell-based; details: read-out: LC50 (the source's name)
[30] = system: SK-MEL-2; assay: 60-cell-line screen: SK-MEL-2 (Melanoma); type: cell-based
[31] = system: SF-295; assay: 60-cell-line screen: SF-295 (Central Nervous System); type: cell-based; details: read-out: LC50 (the source's name)
Excerpt: as §1

[32] = system: NCI-H322M; assay: 60-cell-line screen: NCI-H322M (Non-Small Cell Lung); type: cell-based; details: read-out: LC50 (the source's name)
[33] = system: SF-268; assay: 60-cell-line screen: SF-268 (Central Nervous System); type: cell-based; details: read-out: LC50 (the source's name)
Excerpt: as §1

[34] = system: UO-31; assay: 60-cell-line screen: UO-31 (Renal); type: cell-based
[35] = system: SNB-75; assay: 60-cell-line screen: SNB-75 (Central Nervous System); type: cell-based
[36] = system: SNB-19; assay: 60-cell-line screen: SNB-19 (Central Nervous System); type: cell-based; details: read-out: LC50 (the source's name)
[37] = system: KM12; assay: 60-cell-line screen: KM12 (Colon); type: cell-based; details: read-out: LC50 (the source's name)
Excerpt: as §1

[38] = system: NCI-H522; assay: 60-cell-line screen: NCI-H522 (Non-Small Cell Lung); type: cell-based; details: read-out: LC50 (the source's name)
[39] = system: NCI-H23; assay: 60-cell-line screen: NCI-H23 (Non-Small Cell Lung); type: cell-based
[40] = system: OVCAR-3; assay: 60-cell-line screen: OVCAR-3 (Ovarian); type: cell-based
Excerpt: as §1

[41] = system: OVCAR-5; assay: 60-cell-line screen: OVCAR-5 (Ovarian); type: cell-based
Excerpt: as §1

[42] = system: NCI-H226; assay: 60-cell-line screen: NCI-H226 (Non-Small Cell Lung); type: cell-based; details: read-out: LC50 (the source's name)
[43] = system: HCT-15; assay: 60-cell-line screen: HCT-15 (Colon); type: cell-based; details: read-out: LC50 (the source's name)
[44] = system: MDA-MB-231/ATCC; assay: 60-cell-line screen: MDA-MB-231/ATCC (Breast); type: cell-based
Excerpt: as §1

[45] = system: SK-OV-3; assay: 60-cell-line screen: SK-OV-3 (Ovarian); type: cell-based
Excerpt: as §1

[46] = system: HL-60(TB)
[47] = system: SW-620; assay: 60-cell-line screen: SW-620 (Colon); type: cell-based; details: read-out: LC50 (the source's name)
Excerpt: as §1

[48] = system: EKVX; assay: 60-cell-line screen: EKVX (Non-Small Cell Lung); type: cell-based; details: read-out: LC50 (the source's name)
[49] = system: DU-145; assay: 60-cell-line screen: DU-145 (Prostate); type: cell-based
[50] = system: MDA-MB-435; assay: 60-cell-line screen: MDA-MB-435 (Breast); type: cell-based
[51] = read-out: LC50 (the source's name)

Q: For C=C1C[C@H]2C(O)Nc3cc(OCCCOc4cc5c(cc4OC)C(=O)N4CC(=C)C[C@H]4C(O)N5)c(OC)cc3C(=O)N2C1 (stereo partly shown) [Compound 16], which LC50 [1] is on record?
A: 1000 nM

Q: And the CC50 [2]?
A: 1000 nM

Q: What about the LC50 [3] of the same compound?
A: −6 Log10[C] (M)

Q: And the LC50 ([3]; read-out: LC50)?
A: 1000 nM

Q: And the LC50 [4]?
A: −6 Log10[C] (M)

Q: What about the CC50 [4, 51] of the same compound?
A: 1000 nM

Q: And the CC50 [5]?
A: 1000 nM

Q: And the CC50 [6]?
A: 1000 nM

Q: And the LC50 [7]?
A: −6 Log10[C] (M)

Q: What about the CC50 [7, 51] of the same compound?
A: 1000 nM

Q: What about the LC50 [8] of the same compound?
A: −7.15 Log10[C] (M)

Q: What about the CC50 [8, 51] of the same compound?
A: 70.8 nM

Q: And the CC50 [9]?
A: 1000 nM

Q: What about the LC50 [10] of the same compound?
A: −6 Log10[C] (M)

Q: What about the CC50 [10, 51] of the same compound?
A: 1000 nM

Q: What about the CC50 [11] of the same compound?
A: 1000 nM

Q: What about the LC50 [12] of the same compound?
A: −6.6 Log10[C] (M)

Q: And the CC50 [12, 51]?
A: 251 nM

Q: And the LC50 [13]?
A: −6 Log10[C] (M)

Q: What about the CC50 [13, 51] of the same compound?
A: 1000 nM

Q: And the LC50 [14]?
A: −6 Log10[C] (M)

Q: What about the CC50 [14, 51] of the same compound?
A: 1000 nM

Q: What about the LC50 [15] of the same compound?
A: −6 Log10[C] (M)

Q: And the LC50 ([15]; read-out: LC50)?
A: 1000 nM

Q: And the LC50 [16]?
A: −8.15 Log10[C] (M)

Q: What about the CC50 [16, 51] of the same compound?
A: 7.1 nM

Q: What about the CC50 [17] of the same compound?
A: 1000 nM

Q: And the LC50 [18]?
A: −6 Log10[C] (M)

Q: What about the CC50 [18, 51] of the same compound?
A: 1000 nM

Q: What about the CC50 [19] of the same compound?
A: 1000 nM

Q: What about the LC50 [20] of the same compound?
A: −6 Log10[C] (M)

Q: And the CC50 [20, 51]?
A: 1000 nM

Q: And the LC50 [21]?
A: −7.15 Log10[C] (M)

Q: What about the CC50 [21, 51] of the same compound?
A: 70.8 nM

Q: What about the LC50 [22] of the same compound?
A: −7.24 Log10[C] (M)

Q: And the CC50 [22, 51]?
A: 57.5 nM

Q: And the LC50 [23]?
A: 1000 nM

Q: What about the CC50 [24] of the same compound?
A: 1000 nM

Q: And the LC50 [25]?
A: −6 Log10[C] (M)

Q: And the CC50 [25, 51]?
A: 1000 nM

Q: What about the CC50 [26] of the same compound?
A: 1000 nM

Q: And the CC50 [27]?
A: 1000 nM

Q: What about the LC50 [28] of the same compound?
A: −7.08 Log10[C] (M)

Q: And the CC50 [28, 51]?
A: 83.2 nM

Q: What about the CC50 [29] of the same compound?
A: 1000 nM

Q: What about the LC50 [30] of the same compound?
A: −7.14 Log10[C] (M)

Q: And the CC50 [30, 51]?
A: 72.4 nM

Q: What about the CC50 [31] of the same compound?
A: 1000 nM

Q: What about the CC50 [32] of the same compound?
A: 1000 nM

Q: And the CC50 [33]?
A: 1000 nM

Q: And the LC50 [34]?
A: −6 Log10[C] (M)

Q: What about the CC50 [34, 51] of the same compound?
A: 1000 nM

Q: What about the LC50 [35] of the same compound?
A: −6.33 Log10[C] (M)

Q: What about the CC50 [35, 51] of the same compound?
A: 468 nM

Q: What about the CC50 [36] of the same compound?
A: 1000 nM

Q: And the CC50 [37]?
A: 1000 nM

Q: And the CC50 [38]?
A: 1000 nM

Q: And the LC50 [39]?
A: −7.17 Log10[C] (M)

Q: What about the CC50 [39, 51] of the same compound?
A: 67.6 nM

Q: What about the LC50 [40] of the same compound?
A: −6 Log10[C] (M)

Q: And the CC50 [40, 51]?
A: 1000 nM

Q: And the LC50 [41]?
A: −6 Log10[C] (M)

Q: What about the CC50 [41, 51] of the same compound?
A: 1000 nM

Q: What about the CC50 [42] of the same compound?
A: 1000 nM

Q: And the CC50 [43]?
A: 1000 nM

Q: What about the LC50 [44] of the same compound?
A: 1000 nM

Q: And the LC50 [45]?
A: −6 Log10[C] (M)

Q: What about the LC50 ([45]; read-out: LC50) of the same compound?
A: 1000 nM

Q: What about the LC50 ([46]; Leukemia) of the same compound?
A: −7.55 Log10[C] (M)

Q: And the CC50 ([46]; read-out: LC50, Leukemia)?
A: 28.2 nM

Q: What about the CC50 [47] of the same compound?
A: 1000 nM

Q: And the CC50 [48]?
A: 1000 nM

Q: What about the LC50 [49] of the same compound?
A: −6 Log10[C] (M)

Q: What about the CC50 [49, 51] of the same compound?
A: 1000 nM

Q: And the LC50 [50]?
A: −7.07 Log10[C] (M)

Q: What about the CC50 [50, 51] of the same compound?
A: 85.1 nM
